Results on one molecule are retold here after patent US11939345B2, “Physiologically stable fluorophore and performing fluorescence probing” (Government of the United States of America, as represented …, priority 2019, dated 2024).

Data set [1] can be described thus: pH stability of fluorescence intensity. The class given is physicochemical. To be noted: Example 2; FIG. 22B. On the procedure: With regard to assessment of photoluminescence properties of labeled CNF, photoluminescence excitation (PLE) spectroscopy maps and line scans were obtained with spectrofluorometer and corrected for the instrument's source spectral distribution and detector spectral response. Excitation wavelengths were scanned in 5 nm increments using a 450 W xenon lamp through a 2 nm slit. Emitted light was collected at 90° and measured using a liquid N2-cooled InGaAs detector over 2 nm increments through a 2 nm slit. The fluorescence emission spectra of mDTEB-CNF and mDTEB-seCNF were created using an excitation wavelength (λEx) of 514 nm with emission wavelengths from 530 nm to 650 nm. […] The pH stability of mDTEB-CNF and mDTEB-seCNF were evaluated by measuring fluorescence intensity using a Nanolog-3 spectrofluorometer. Buffered solutions containing 0.5 mg/mL labeled CNF in the range of pH 2 to 10 were equilibrated to 37° C., and the fluorescence intensity was measured at λEm 540 nm. […] The photoluminescence spectra of autoclaved washed fibers, the collected supernatants, and the controls were recorded using the spectrofluorometer as described above. The concentration-dependence of the labeled CNF fluorescence was assessed by measuring the fluorescence intensity of labeled CNF diluted to concentrations between 2 μg/mL and 2 mg/mL using PBS buffer or deionized water. […]

The nature of data set [2]: Photoluminescence excitation/emission and absorption spectra. The class given is physicochemical. On the procedure: With regard to assessment of photoluminescence properties of labeled CNF, photoluminescence excitation (PLE) spectroscopy maps and line scans were obtained with spectrofluorometer and corrected for the instrument's source spectral distribution and detector spectral response. Excitation wavelengths were scanned in 5 nm increments using a 450 W xenon lamp through a 2 nm slit. Emitted light was collected at 90° and measured using a liquid N2-cooled InGaAs detector over 2 nm increments through a 2 nm slit. The fluorescence emission spectra of mDTEB-CNF and mDTEB-seCNF were created using an excitation wavelength (λEx) of 514 nm with emission wavelengths from 530 nm to 650 nm. An excitation plot was created with an emission wavelength (λEm) of 540 nm with excitation wavelengths from 400 nm to 530 nm. The UV-Vis absorption spectra were collected with a UV-Vis-NIR spectrophotometer. The pH stability of mDTEB-CNF and mDTEB-seCNF were evaluated by measuring fluorescence intensity using a Nanolog-3 spectrofluorometer. Buffered solutions containing 0.5 mg/mL labeled CNF in the range of pH 2 to 10 were equilibrated to 37° C., and the fluorescence intensity was measured at λEm 540 nm. […] The photoluminescence spectra of autoclaved washed fibers, the collected supernatants, and the controls were recorded using the spectrofluorometer as described above. The concentration-dependence of the labeled CNF fluorescence was assessed by measuring the fluorescence intensity of labeled CNF diluted to concentrations between 2 μg/mL and 2 mg/mL using PBS buffer or deionized water. Fluorescence intensity was recorded on a multimode microplate reader equipped with monochromator optics at λEx 514 nm and λEm 540 nm. […] Each suspension was measured in triplicate using 200 μL samples. […] For fluorescence images, dilute labeled CNF suspensions were deposited onto an ultraviolet ozone (UVO)-treated glass slides and dried at room temperature. […]
Photoluminescence properties (excitation and emission spectra) of the mDTEB dye and mDTEB-seCNF were recorded using fluorescence spectroscopy. […]

Regarding `CCC1=C(C)C2=C(c3ccc(Oc4nc(Cl)nc(Cl)n4)cc3)c3c(C)c(CC)c(C)n3[B-](F)(F)[N+]2=C1C` [mDTEB, 10-(4-((4,6-dichloro-1,3,5-triazin-2-yl)oxy)phenyl)-2,8-diethyl-5,5-difluoro-1,3,7,9-tetramethyl-5H-414,514-dipyrrolo[1,2-c:2′,1′-f] [1,3,2]diazaborinine], the “emission intensity as a function of pH” value in data set [1] is recorded as “stable to a wide range of pH values”. Besides, the Stokes shift in data set [2] is recorded as 36 nm. The absorbance peak in data set [2] (FIG. 22A, in water) is 514 nm. Moreover, the “maximum emission intensity wavelength / emission peak” value in data set [2] (fluorescence spectroscopy) was 540 nm.
